Reference: patent publication US11931343B2 (ARCUS BIOSCIENCES, INC., priority 2018, dated 2024)

Target: T1, human CD73 (Homo sapiens, UniProt P21589)
T1 sequence (P21589 27-549): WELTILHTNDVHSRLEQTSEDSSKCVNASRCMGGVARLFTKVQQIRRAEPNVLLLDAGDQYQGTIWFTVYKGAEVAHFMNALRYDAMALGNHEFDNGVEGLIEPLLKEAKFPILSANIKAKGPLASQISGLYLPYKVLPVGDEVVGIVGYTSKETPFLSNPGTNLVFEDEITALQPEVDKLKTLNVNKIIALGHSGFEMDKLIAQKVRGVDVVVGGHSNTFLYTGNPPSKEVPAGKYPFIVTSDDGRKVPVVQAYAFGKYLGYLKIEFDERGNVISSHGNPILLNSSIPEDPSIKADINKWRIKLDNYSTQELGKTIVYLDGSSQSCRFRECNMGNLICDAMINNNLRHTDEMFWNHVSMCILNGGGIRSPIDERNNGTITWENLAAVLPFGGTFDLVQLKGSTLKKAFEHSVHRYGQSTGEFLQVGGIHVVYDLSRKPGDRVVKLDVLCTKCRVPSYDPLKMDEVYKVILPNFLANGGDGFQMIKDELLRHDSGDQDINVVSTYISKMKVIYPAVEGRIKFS
Experiment: Inhibition of Ecto-5′-nucleotidase (CD73) activity in CHO-CD73 cells, phosphate release from AMP
Assay type: cell-based
Details: CHO-K1 cells stably transfected with human CD73; 25 μM AMP; 50 minutes, 37° C.; read-out: Potency: CD73 IC50

Cn1c(=O)n(-c2ccc3cn[nH]c3c2)c2cc(-c3ccnn3Cc3ccc(C#N)cc3)cnc21 [Example 332]
IC50: > 1 µM

N#Cc1ccc(Cn2c(-c3cc(F)c4nnn(-c5ccc6[nH]c(=O)[nH]c6c5)c4c3)c[nH]c2=O)cc1 [Example 333]
IC50: 0.1 to 1 µM

Cc1cnn(Cc2ccc(C#N)cc2)c1-c1cc(F)c2nnn(-c3ccc4[nH]c(=O)[nH]c4c3)c2c1 [Example 334]
IC50: 0.1 to 1 µM

N#Cc1ccc(Cn2nccc2-c2ccc3cnc(-c4ccc5[nH]c(=O)[nH]c5c4)n3c2)c(F)c1 [Example 335]
IC50: > 1 µM

N#Cc1ccc(Cn2nccc2-c2cnc3c(CO)nn(-c4ccc5[nH]c(=O)[nH]c5c4)c3c2)cc1 [Example 336]
IC50: 0.1 to 1 µM

N#Cc1ccc(Cn2nccc2-c2cnc3c(N)nn(-c4cc(F)c5[nH]c(=O)[nH]c5c4)c3c2)c(F)c1 [Example 337]
IC50: 0.1 to 1 µM

N#Cc1ccc(Cn2nccc2-c2cc3c(cnn3-c3ccc4cn[nH]c4c3)c(=O)[nH]2)c(F)c1 [Example 338]
IC50: 0.1 to 1 µM

N#Cc1ccc(Cn2nccc2-c2cnc3c(N)nn(-c4cc5[nH]c(=O)[nH]c5cc4F)c3c2)c(F)c1 [Example 339]
IC50: < 0.1 µM

Cn1nc(-c2ccc3cn[nH]c3c2)c2cc(-c3ccnn3Cc3ccc(C#N)cc3)cnc21 [Example 341]
IC50: 0.1 to 1 µM

N#Cc1ccc(Cn2nccc2-c2cnc3c(c2)c(-c2ccc4cn[nH]c4c2)nn3CCc2ccccc2)cc1 [Example 342]
IC50: > 1 µM

N#Cc1ccc(Cn2nccc2-c2cc(F)c3nnn(-c4ccc5[nH][nH]c(=O)c5c4)c3c2)cc1 [Example 343]
IC50: 0.1 to 1 µM

N#Cc1ccc(Cn2nccc2-c2cc(F)c3nnn(-c4ccc5c(CO)n[nH]c5c4)c3c2)cc1 [Example 344]
IC50: 0.1 to 1 µM

N#Cc1ccc(Cn2nccc2-c2cc(F)c3nnn(-c4ccc5c(N)n[nH]c5c4)c3c2)cc1 [Example 345]
IC50: 0.1 to 1 µM

N#Cc1ccc(Cn2nccc2-c2cc3c(cn2)nnn3-c2ccc3c(=O)[nH][nH]c3c2)cc1 [Example 346]
IC50: 0.1 to 1 µM

N#Cc1ccc(Cn2nccc2-c2cc(F)c3nnn(-c4ccc5c(CNS(N)(=O)=O)n[nH]c5c4)c3c2)cc1 [Example 347]
IC50: > 1 µM

N#Cc1ccc(Cn2nccc2-c2cc(F)c3nnn(-c4ccc5c(CC(=O)O)n[nH]c5c4)c3c2)cc1 [Example 348]
IC50: > 1 µM

N#Cc1ccc(Cn2nccc2-c2cc(F)c3nnn(-c4ccc5c(CCO)n[nH]c5c4)c3c2)cc1 [Example 349]
IC50: > 1 µM

N#Cc1ccc(Cn2nccc2-c2cc(F)c3nnn(-c4ccc5c(=O)[nH][nH]c5c4)c3c2)cc1 [Example 350]
IC50: 0.1 to 1 µM

N#Cc1ccc(Cn2nccc2-c2cc(F)c3nnn(-c4ccc5c(CNC(=O)CN)n[nH]c5c4)c3c2)cc1 [Example 351]
IC50: > 1 µM

N#Cc1ccc(Cn2nccc2-c2cc3c(nnn3-c3ccc4cn[nH]c4c3)c(=O)[nH]2)cc1 [Example 352]
IC50: < 0.1 µM

COCc1n[nH]c2cc(-n3nnc4c(F)cc(-c5ccnn5Cc5ccc(C#N)cc5)cc43)ccc12 [Example 353]
IC50: > 1 µM

N#Cc1ccc(Cn2nccc2-c2cc(F)c3nnn(-c4ccc(O)cc4)c3c2)cc1 [Example 354]
IC50: > 1 µM

N#Cc1ccc(Cn2nccc2-c2cc(F)c3nnn(-c4ccc5c(COCCO)n[nH]c5c4)c3c2)cc1 [Example 355]
IC50: > 1 µM

Cn1c(-c2ccnn2Cc2ccc(C#N)cc2)cc2c(nnn2-c2ccc3cn[nH]c3c2)c1=O [Example 356]
IC50: 0.1 to 1 µM

COc1nc(-c2ccnn2Cc2ccc(C#N)cc2)cc2c1nnn2-c1ccc2cn[nH]c2c1 [Example 357]
IC50: 0.1 to 1 µM

Cc1nn(-c2ccc3cn[nH]c3c2)c2cc(-c3ccnn3Cc3ccc(C#N)cc3)[nH]c(=O)c12 [Example 358]
IC50: 0.1 to 1 µM

N#Cc1ccc(Cn2nccc2-c2cc3c(nnn3-c3ccc4[nH]c(=O)[nH]c4c3)c(=O)[nH]2)cc1 [Example 359]
IC50: 0.1 to 1 µM

Cc1nn(-c2ccc3cn[nH]c3c2)c2cc(-c3ccnn3Cc3ccc(C#N)cc3)c[n+]([O-])c12 [Example 360]
IC50: 0.1 to 1 µM

Cn1nc(-c2ccc3cn[nH]c3c2)c2cc(-c3ccnn3Cc3ccc(C#N)cc3)c[n+]([O-])c21 [Example 361]
IC50: > 1 µM
